Format in all cases: cell-based
The test system of one experiment is HCV GT 1a replicon. The experiment can be described thus: HCV replicon assay, stable GT 1a replicon (Renilla luciferase). The settings on record: Hepatitis C virus, GT1A; HCV GT 1a replicon, 72 h; read-out: EC50 1a. Here is the method: (§1) The activity of compounds was determined against HCV replicons representing genotypes (GT) 1a, 1b, 2a, and 3a. To generate stable Huh-7.5-based cell lines, HCV replicons were engineered to express the Renilla luciferase reporter (hRluc) fused to the neomycin phosphotransferase (Neo) gene. GT2a and GT3a HCV replicons were based on the JFH-1 subgenomic replicon (Kato et al. 2003 Gastroenterology, 125:1808-1817), in which the NS5A gene was replaced with that of strains J6 and S52 (GT2a and G3a, respectively). The activity of compounds against GT1a replicons encoding NS5A mutations (M28T, Q30R, L31M, Y93C, and Y93H) was also determined in a transient replication assay. The parental GT1a and GT2a replicons (pH/SG-Neo(L+I) and pSG-Neo-JFH1, respectively) were licensed from Apath LLC (Saint Louis, Mo.). The parental GT 1b replicon (pFKi389lucubineo_3_3′_ET) was licensed from ReBLikon GmbH (Germany). HCV replicons were constructed by standard molecular biology techniques described below. All replicon constructs were verified by restriction enzyme digestion and DNA sequencing.
pH/SG-Neo(L+I) was modified to add the firefly luciferase reporter gene and additional adaptive mutations by replacing the pH/SG-Neo(L+I) NS3-NS5A coding region with the corresponding sequence of pH77-S, creating pH/SG-lucubineo-H77S as described (Borawski J et al. 2009, J Virol 83: 10058-10074). Subsequently, the firefly luciferase-Neo cassette was replaced with the hRluc-Neo cassette. To create a unique cloning site, the NotI restriction site in NS5B was removed using QuickChange II XL Site-Directed Mutagenesis Kit (Agilent) and the following primers: NotI KO Fwd 5′-CTCAAACTCACTCCAATAGCTGCCGCTGGCCGGCTGGAC-3′(G→T mutation removing NotI site underlined) (SEQ. ID No. 1) and NotI KO Rev 5′-GTCCAGCGGGCCAGCGGCAGCTATTGGAGTGAGTTTGAG-3′(C→A mutation removing NotI site underlined) (SEQ. ID No. 2). The resulting vector, pH/SG-lucubineo-H775-NotIKO, was sequenced to confirm the NS5B gene. The hRluc-Neo cassette was PCR amplified from pF9 cytomegalovirus (CMV) hRluc-Neo Flexi(R) (Promega) using Accuprime Super Mix II (Invitrogen) and the following primers, which introduce restriction sites: […]
The amplification product was subcloned into pCR2.1-TOPO (Invitrogen). The resulting plasmid was digested with AscI and NotI, and the excised hRluc-Neo fragment was ligated using the Promega Rapid Ligation Kit (Promega) into pH/SG-lucubineo-H775-NotIKO digested with the same enzymes.
Stable HCV replicon cell lines were grown in complete media (Dulbecco's modified Eagle medium [DMEM], 2 mM L-glutamine, 0.1 mM essential amino acids, 1 mM sodium pyruvate, 10% heat inactivated fetal bovine serum) with the addition 500 μg/ml […] (G418). Huh7-lunet cells were maintained in the same medium without the addition of G418. Cells were routinely passaged at a dilution of 1:4 two times a week. The assay medium for both luciferase reporter HCV replicon and cytotoxicity assays used phenol red-free DMEM and lacked G418. For each stable replicon assay, a sixteen point half-log dilution series of compound was stamped (0.5 ul compound per well) into three replica 384-well plates, to which cells were added directly (4000 cells/well). For the transient replication assay, Huh7-lunet cells in ice-cold phosphate buffered saline (PBS) were electroporated (BioRad electroporator; 950 uF, 270V) with 10 ug purified in vitro transcribed HCV replicon RNA, followed by resuspension in complete media and plating (8000 cells/well) into compound stamped 384-well plates. Luciferase activity of compound-treated cells was measured relative to DMSO-treated cells after 72 h incubation using RENILLA-GLO™ Luciferase Assay (Promega). Cytotoxicity (CC50) in the GT1b replicon cell line was analyzed using CELL TITER-GLO™ (Promega). […]
(Replicon systems follow genome replication, usually without infectious particles.)

The test system of experiment [1] is GT1a replicon encoding NS5A mutation M28T. The experiment is described as follows: Transient replication assay, GT1a replicon with NS5A mutation M28T. The settings on record: Hepatitis C virus, read-out: EC50 1a M28T.
Experiment [2] concerns GT1a replicon encoding NS5A mutation Q30R. The experiment is described as follows: Transient replication assay, GT1a replicon with NS5A mutation Q30R. Conditions: Hepatitis C virus, read-out: EC50 1a Q30R.
Experiment [3] has as its system GT1a replicon encoding NS5A mutation L31V. The experiment is described as follows: Transient replication assay, GT1a replicon with NS5A mutation L31V. The settings on record: Hepatitis C virus, read-out: EC50 1a L31V.
Experiment [4] deals with GT1a replicon encoding NS5A mutation Y93H. The experiment is described as follows: Transient replication assay, GT1a replicon with NS5A mutation Y93H. The settings on record: Hepatitis C virus, read-out: EC50 1a Y93H.
The test system of experiment [5] is GT1a replicon encoding NS5A mutation Y93C. The experiment can be described thus: Transient replication assay, GT1a replicon with NS5A mutation Y93C. Conditions: Hepatitis C virus, read-out: EC50 1a Y93C.
In another experiment the test system is HCV GT 1b replicon. The experiment can be described thus: HCV replicon assay, stable GT 1b replicon (Renilla luciferase). Conditions: Hepatitis C virus, GT1B, 72 h. Here is the method: as §1
The hRluc-Neo cassette was PCR amplified from pF9 cytomegalovirus (CMV) hRluc-Neo Flexi(R) (Promega) using Accuprime Super Mix II (Invitrogen) and the following primers, which introduce restriction sites: […]
The amplification product was subcloned into pCR2.1-TOPO (Invitrogen). The resulting plasmid was digested with AscI and NotI, and the excised hRluc-Neo fragment was ligated using the Roche Quick Ligation Kit (Roche) into pFKi389lucubineo_3_3′_ET digested with the same enzymes.
Stable HCV replicon cell lines were grown in complete media (Dulbecco's modified Eagle medium [DMEM], 2 mM L-glutamine, 0.1 mM essential amino acids, 1 mM sodium pyruvate, 10% heat inactivated fetal bovine serum) with the addition 500 μg/ml […] (G418). Huh7-lunet cells were maintained in the same medium without the addition of G418. Cells were routinely passaged at a dilution of 1:4 two times a week. The assay medium for both luciferase reporter HCV replicon and cytotoxicity assays used phenol red-free DMEM and lacked G418. For each stable replicon assay, a sixteen point half-log dilution series of compound was stamped (0.5 ul compound per well) into three replica 384-well plates, to which cells were added directly (4000 cells/well). For the transient replication assay, Huh7-lunet cells in ice-cold phosphate buffered saline (PBS) were electroporated (BioRad electroporator; 950 uF, 270V) with 10 ug purified in vitro transcribed HCV replicon RNA, followed by resuspension in complete media and plating (8000 cells/well) into compound stamped 384-well plates. Luciferase activity of compound-treated cells was measured relative to DMSO-treated cells after 72 h incubation using RENILLA-GLO™ Luciferase Assay (Promega). Cytotoxicity (CC50) in the GT1b replicon cell line was analyzed using CELL TITER-GLO™ (Promega).
The compounds of the present invention can be effective against the HCV 1b genotype. It should also be understood that the compounds of the present invention can inhibit multiple genotypes of HCV. In one embodiment compound of the present invention are active against the 1a, 1b, 2a, 2b, 3a, 4a, and 5a genotypes. In another embodiment compound of the present invention are active against the HCV resistant mutants. […] EC50s are in pM against HCV GT 1a and GT 1b; and nM against GT 2a-J6, GT 3a and GT1a resistant variants (M28T, Q30R, L31V, Y93C and Y93H).

Consider `COC(=O)N[C@H](C(=O)N1[C@H](c2nc3ccc4cc(-c5ccc(-c6cnc([C@@H]7C[C@@]8(CCCOC8)CN7C(=O)[C@@H](NC(=O)OC)C7C[C@@H](C)O[C@H](C)C7)[nH]6)cc5)ccc4c3[nH]2)C[C@@H]2CCC[C@@H]21)C(C)C` (some centres unmarked) [Compound 43], for which the half-maximal effective concentration (EC50) – broadly, the midpoint of the concentration-response curve – turned out to be 0.015 nM in the experiment on HCV GT 1a replicon; 0.04 nM in experiment [1]; 0.03 nM in experiment [2]; 0.06 nM in experiment [3]; 2 nM in experiment [4]; 0.04 nM in experiment [5]. A half-maximal effect in the experiment with HCV GT 1b replicon (EC50) was put at 0.023 nM.
Regarding `COC(=O)N[C@H](C(=O)N1[C@H](c2ncc(-c3ccc(-c4ccc(-c5cnc([C@@H]6C[C@@]7(CCCOC7)CN6C(=O)[C@@H](NC(=O)OC)C6C[C@@H](C)O[C@H](C)C6)[nH]5)cc4)cc3)[nH]2)C[C@@H]2CCC[C@@H]21)C(C)C` (some centres unmarked) [Compound 45], the EC50 amounted to 0.023 nM with HCV GT 1a replicon; 0.04 nM in experiment [1]; 0.03 nM in experiment [2]; 0.06 nM in experiment [3]; 8 nM in experiment [4]; 0.3 nM in experiment [5]. In the experiment with HCV GT 1b replicon, this molecule registered an EC50 of 0.028 nM.
